According to the NIST ThermoML archive (doi:10.1021/acs.jced.6b00713):
Numbers after ± are expanded uncertainties.

Legend:
[1] = refractive index (Na D-line) (dimensionless); conditions: 293.15 K; 101.33 kPa; Liquid; Standard Abbe refractometry
[2] = 298.15 K; 101.33 kPa; Liquid; Vibrating tube method
[3] = Boiling temperature at pressure P; conditions: 101.3 kPa; Liquid; Ebulliometric method (Recirculating still)

Compound: Cc1ccccn1 [2-methylpyridine]
- refractive index [1]: 1.4985 ± 0.0007
- mass density [2]: 940.5 ± 0.1 kg/m3
- Boiling temperature at pressure P [3]: 129.1 ± 0.2 °C

Compound: O [water]
- refractive index [1]: 1.3322 ± 0.0007
- Boiling temperature at pressure P [3]: 100.10 ± 0.2 °C
